Legend:
Human recombinant PDE4B = biological target: T1, Human recombinant PDE4B (Homo sapiens, UniProt Q07343); assay: Inhibition of PDE activity: luciferase-coupled PDE assay (PDE4B); format: biochemical; settings: active if pIC50 of about 6 to 10.4 or greater against PDE4B; listed examples found to be the most active
T1 construct: made in house; host or cells: Saccharomyces cerevisiae strain GL62
Excerpt: Human recombinant PDE4B, in particular the 2B splice variant thereof (HSPDE4B2B), is disclosed in WO 94/20079 and also in M. M. McLaughlin et al., “A low Km, rolipram-sensitive, cAMP-specific phosphodiesterase from human brain: cloning and expression of cDNA, biochemical characterization of recombinant protein, and tissue distribution of mRNA”, J. Biol. Chem., 1993, 268, 6470-6476. For example, in Example 1 of WO 94/20079, human recombinant PDE4B is described as being expressed in the PDE-deficient yeast Saccharomyces cerevisiae strain GL62. PDE4B expression is induced by the addition of 150 μM CuSO4.
For luminescence-coupled assay based screening the supernatant fractions of yeast cell lysates are subjected to Cibacron blue affinity chromatography, dialysis and desalting, to enrich for PDE4B and to remove components, e.g. ATP, able to interfere with the assay. Human recombinant PDE4D (HSPDE4D3A) is disclosed in P. A. Baecker et al., “Isolation of a cDNA encoding a human rolipram-sensitive cyclic AMP phosphodiesterase (PDE IVD)”, Gene, 1994, 138, 253-256. Expression of human PDE4D in yeast, and subsequent preparation of the recombinant protein for assay was as described for PDE4B.
Inhibition of PDE4B and PDE4D are measured using a luminescence-coupled assay system developed by Cambrex. This assay system couples the formation of AMP, derived from PDE4-catalyzed hydrolysis of cAMP, to the formation of ATP. The ATP is then used as a substrate for Luciferase and results in light as a signal output. […] The luminescence is then measured on a Viewlux imager (Perkin Elmer) using emission filters of 613/55 nm or 618/40 nm and a 5 second exposure. […] Curves were analyzed using ActivityBase and XL fit, and results are expressed as pIC50 values. […]
Curves were analyzed using ActivityBase and XLfit, and results are expressed as pIC50 values. […]

[1] = tested on: M1, M2 (w/Gqi5) and M3 ACh receptors stably expressed in CHO cells; assay: Calcium mobilization (FLIPR) IC50 determination for antagonists, inhibition of ACh induced muscarinic receptor activation; format: cell-based, human; settings: EC80 ACh, active if IC50 of between 33 uM and 10 nM or less, listed examples found to be the most active
Excerpt: Studies to determine the effectiveness of antagonists to cause blockade of functional intracellular calcium fluxes following agonist (ACh) treatment of cloned human receptors.
This system is used for characterizations of antagonist-receptor interactions using four distinct variations of the FLIPR methodology: (a) potency: IC50 determination, (b) potency: pA2 determination, (c) reversibility of antagonist-receptor interaction, or (d) confirmation of no functional agonist activity. Cell Source The human M1-M3 receptors are cloned and stably expressed in Chinese Hamster Ovary (CHO) cells. The M2 receptors are co-expressed with the chimeric G protein, Gqi5. […] The emitted fluorescence from all 96 wells is measured simultaneously using a cooled CCD camera. […] Experimental Protocols: Cell plating: A microtiter plate based calcium mobilization FLIPR (Fluorometric Imaging Plate Reader, Molecular Devices, Sunnyvale Calif., [Schroeder K S, Neagle, B D. FLIPR: a new instrument for accurate, high throughput optical screening. J. Biomol. Screen. 1996; 1:75.]) assay is used for the functional characterization of compounds against M1, M2 (w/Gqi5) and M3 ACh receptors stably expressed in CHO cells. […]

T1 sequence (Q07343 1-564 isoform Q07343-2): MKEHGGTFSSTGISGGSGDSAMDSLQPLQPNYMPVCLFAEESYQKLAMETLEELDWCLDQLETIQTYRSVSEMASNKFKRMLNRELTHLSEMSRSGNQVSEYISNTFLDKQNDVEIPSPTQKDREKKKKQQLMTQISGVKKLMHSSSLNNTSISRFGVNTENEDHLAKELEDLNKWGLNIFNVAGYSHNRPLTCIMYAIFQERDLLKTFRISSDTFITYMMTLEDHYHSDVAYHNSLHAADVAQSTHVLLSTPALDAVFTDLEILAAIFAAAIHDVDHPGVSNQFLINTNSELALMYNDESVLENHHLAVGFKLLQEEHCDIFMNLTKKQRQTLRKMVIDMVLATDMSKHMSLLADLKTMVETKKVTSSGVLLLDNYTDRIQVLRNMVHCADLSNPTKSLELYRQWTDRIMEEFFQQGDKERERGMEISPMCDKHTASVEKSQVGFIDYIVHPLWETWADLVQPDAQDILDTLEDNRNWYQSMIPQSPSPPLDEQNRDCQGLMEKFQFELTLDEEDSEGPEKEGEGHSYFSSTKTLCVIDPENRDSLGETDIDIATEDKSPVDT

SMILES | activity in the PDE4B assay (pIC50) (Human recombinant PDE4B) | activity in FLIPR antagonist IC50 assay (inhibition of ACh induced response) [1]
CCc1nc2c(cnn2CC)c(NC2CCOCC2)c1CNC(=O)CC(=O)NCc1cccc(-c2cccc(CN3CCCNCC3)c2)c1 [Example 180, N-{[1,6-Diethyl-4-(tetrahydro-2H-pyran-4-ylamino)-1H-pyrazolo[3,4-b]pyridin-5-yl]methyl}-N′-{[3′-(hexahydro-1H-1,4-diazepin-1-ylmethyl)-3-biphenylyl]methyl}propanediamide] | – | most active
CCc1nc2c(cnn2CC)c(NC2CCOCC2)c1CNC(=O)CC(=O)NCc1ccc(F)c(-c2cccc(CN3C[C@@H](C)N[C@@H](C)C3)c2)c1 [Example 217, N-{[1,6-diethyl-4-(tetrahydro-2H-pyran-4-ylamino)-1H-pyrazolo[3,4-b]pyridin-5-yl]methyl}-N′-[(3′-{[(3R,5S)-3,5-dimethyl-1-piperazinyl]methyl}-6-fluoro-3-biphenylyl)methyl]propanediamide] | most active | –
CCc1nc2c(cnn2CC)c(NC2CCOCC2)c1CNC(=O)CCCC(=O)NCc1ccc(F)c(-c2cccc(CN3C[C@@H]4C[C@@H]3CN4Cc3ccccc3)c2)c1 [Example 193, N-{[1,6-diethyl-4-(tetrahydro-2H-pyran-4-ylamino)-1H-pyrazolo[3,4-b]pyridin-5-yl]methyl}-N′-[(6-fluoro-3′-{[(1R,4S)-5-(phenylmethyl)-2,5-diazabicyclo[2.2.1]hept-2-yl]methyl}-3-biphenylyl)methyl]pentanediamide] | – | most active

Further lines, with some results ahead:

activity in the PDE4B assay (pIC50) (Human recombinant PDE4B) | SMILES | activity in FLIPR antagonist IC50 assay (inhibition of ACh induced response) [1]
most active | CCc1nc2c(cnn2CC)c(NC2CCOCC2)c1CNC(=O)CCC(=O)NCc1ccc(Cl)c(-c2cccc(CN3CCN[C@@H](C)C3)c2)c1 [Example 265, N-[(6-chloro-3′-{[(3S)-3-methyl-1-piperazinyl]methyl}-3-biphenylyl)methyl]-N′-{[1,6-diethyl-4-(tetrahydro-2H-pyran-4-ylamino)-1H-pyrazolo[3,4-b]pyridin-5-yl]methyl}butanediamide] | –
most active | CCc1nc2c(cnn2CC)c(NC2CCOCC2)c1CNC(=O)CCC(=O)NCc1ccc(F)c(-c2cccc(CN3CCN[C@H](C)C3)c2)c1 [Example 267, N-{[1,6-diethyl-4-(tetrahydro-2H-pyran-4-ylamino)-1H-pyrazolo[3,4-b]pyridin-5-yl]methyl}-N′-[(6-fluoro-3′-{[(3R)-3-methyl-1-piperazinyl]methyl}-3-biphenylyl)methyl]butanediamide] | –

Reference: patent US8071588B2, “Dual pharmacophores—PDE4-muscarinic antagonistics” (Glaxo Group Limited, priority 2008, dated 2011)
